Entries after “also recorded” stand apart in the source; their conditions may differ. Where a name gives a salt, the structure may show the parent alone. Read-outs that look alike come from different tables or passages of the source.
What was measured:
MMP-9 [1] = target: T1, MMP-9 (Homo sapiens (Human), UniProt P14780); test: Enzyme inhibition, MMP-9 catalytic domain; type: biochemical; settings: for residence time: calculated as 1/koff
Target sequence in this assay (P14780 107-444): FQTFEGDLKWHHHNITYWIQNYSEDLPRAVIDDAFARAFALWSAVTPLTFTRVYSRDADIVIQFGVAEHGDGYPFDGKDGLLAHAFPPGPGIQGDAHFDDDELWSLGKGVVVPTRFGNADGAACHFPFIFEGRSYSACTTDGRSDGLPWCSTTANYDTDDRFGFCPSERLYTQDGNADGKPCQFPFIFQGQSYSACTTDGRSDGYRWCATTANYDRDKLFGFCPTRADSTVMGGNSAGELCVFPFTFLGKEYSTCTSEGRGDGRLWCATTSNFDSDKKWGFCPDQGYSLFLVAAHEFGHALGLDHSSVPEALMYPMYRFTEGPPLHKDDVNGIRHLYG
Experimental: (§6) Inhibitor stock solutions (10 mM) were prepared freshly in DMSO before enzyme inhibition assays. […] Enzyme inhibition studies were carried out using a Cary Eclipse fluorescence spectrophotometer (Varian, Walnut Creek, Calif., USA).

MMP-8 = MMP-8 (Homo sapiens (Human), UniProt P22894); test: Enzyme inhibition, MMP-8 catalytic domain; type: biochemical
Sequence of MMP-8 (P22894 100-262): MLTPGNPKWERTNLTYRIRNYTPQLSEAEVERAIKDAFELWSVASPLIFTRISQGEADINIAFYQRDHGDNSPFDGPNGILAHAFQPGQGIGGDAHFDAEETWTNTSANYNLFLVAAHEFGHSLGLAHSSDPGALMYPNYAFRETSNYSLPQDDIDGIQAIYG
Experimental: as §6

MMP-1 = MMP-1 (Homo sapiens (Human), UniProt P03956); test: Enzyme inhibition, MMP-1 catalytic domain; type: biochemical
Sequence of MMP-1 (P03956 100-269): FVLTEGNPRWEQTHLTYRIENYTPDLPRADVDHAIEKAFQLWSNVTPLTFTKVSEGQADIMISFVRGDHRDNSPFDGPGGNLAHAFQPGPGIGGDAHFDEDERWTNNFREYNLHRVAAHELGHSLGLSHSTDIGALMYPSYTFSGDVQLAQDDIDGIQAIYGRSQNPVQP
From the text: (§1) Human recombinant active MMP-2 and MMP-7, and the catalytic domains of MMP-3 and MMP-14/MT1-MMP were purchased from EMD Chemicals, Inc. (San Diego, Calif., USA); human recombinant catalytic domains of MMP-1, MMP-8, and MMP-9 were purchased from Enzo Life Sciences, Inc. (Farmingdale, N.Y., USA); human recombinant active ADAM9 and ADAM10 were purchased from R&D Systems (Minneapolis, Minn., USA). Fluorogenic substrates MOCAc-Pro-Leu-Gly-Leu-A2pr(Dnp)-Ala-Arg-NH2 (for MMP-2, MMP-7, MMP-9 and MMP-14) and MOCAc-Arg-Pro-Lys-Pro-Val-Glu-Nva-Trp-Arg-Lys(Dnp)-NH2 (for MMP-3) were purchased from Peptides International (Louisville, Ky., USA); Mca-KPLGL-Dpa-AR-NH2 (for MMP-1, MMP-8 and ADAM10) and Mca-PLAQAV-Dpa-RSSSR-NH2 (for ADAM9) were purchased from R&D Systems (Minneapolis, Minn., USA). The Km values for MMP-2, MMP-9 and MMP-14 were the same as previously reported by Gooyit et al. ((2013) J. Med. Chem. 56(20):8139-8150). Inhibitor stock solutions (10 mM) were prepared freshly in DMSO before enzyme inhibition assays. We followed the same methodology for enzyme inhibition studies as reported before by Page-McCaw et al. ((2007) Nat Rev Mol Cell Biol 8(3):221-233). Enzyme inhibition studies were carried out using a Cary Eclipse fluorescence spectrophotometer (Varian, Walnut Creek, Calif., USA).

IL-6 = IL-6 in wound tissue by ELISA; type: in vivo, mouse; settings: db/db mice, versus vehicle
Experimental: (§2) Mice were sacrificed on days 7, 10, and 14, and the excised wounds were embedded in OCT compound and cryosectioned for histological evaluation and in situ zymography.
(§3) Wound tissues (n=3 mice/group) were harvested and immediately frozen in liquid nitrogen on days 1, 3, and 14. The extracted tissues were homogenized in cold lysis buffer containing free-EDTA protease inhibitor cocktail (Pierce, Rockford, Ill., USA). The lysates were analyzed for protein concentration by the Bradford protein assay (Bio-Rad, Hercules, Calif., USA). The levels of IL-6, TGF-β1 and VEGF in the lysates were determined by ELISA, following the manufacturer's protocol (Abcam, Cambridge, Mass., USA). The cytokine levels for each mouse sample were expressed in picograms/mg tissue.

[2] = Stability in the buffers of the kinetic assays; type: physicochemical
[3] = test system: diabetic wounds of db/db mice; test: Excisional diabetic wound model, wound closure; type: in vivo, mouse
Experimental: Female diabetic db/db mice (BKS.Cg-Dock7^m+/+Lepr^db/J, 8-weeks old) were purchased from the Jackson Laboratory (Bar Harbor, Me., USA) and fed 5001 Laboratory Rodent Diet (LabDiet, St. Louis, Mo., USA) and water ad libitum. Mice were housed in polycarbonate shoebox cages with hardwood bedding at 72±2° F. and 12 h light/12 h dark.
The dorsal area of the mice was shaved, and a single excisional 8-mm diameter wound (50 mm^2) was made on the dorsal thorax with a biopsy punch (Miltex, Plainsboro, N.J., USA) while the animals were under isofluorane anesthesia. Wounds were covered with Tegaderm™ dressing (3M Company, St. Paul, Minn., USA). Topical treatment was started the next day.
Mice were anesthetized with isofluorane, and wounds were photographed with an Olympus SP-800 UZ camera mounted on a tripod at a fixed distance; a ruler was included in the digital photo. Wound areas were calculated using NIH ImageJ software (version 1.48) and expressed as percent change in wound area relative to day 0.
(§4) Wound measurements were taken on days 0, 7, 10, and 14. Animals were sacrificed on day 14 and wounds analyzed by H&E staining, TUNEL, and in-situ zymography.
Female diabetic db/db (BKS.Cg-Dock7m+/+Leprdb/J, 8-weeks old, 38±3 g, n=24) were used for this study. Wounds were inflicted as described and the following day the wounds were treated topically with MMP-8 (50 μL of 20 μg/mL MMP-8 in reaction buffer) or vehicle (50 μL reaction buffer) once a day for 14 days. The reaction buffer consisted of 50 mM Tris (pH 7.5), 10 mM CaCl2, 150 mM NaCl, and 0.05% (w/v) Brij-35 (polyoxyethyleneglycoli dodecyl ether). Digital photographs of the wounds were taken on days 0, 7, 10, and 14 while animals were under isoflurane anesthesia. On days 7 and 14, 12 mice (n=6 per group) were sacrificed. The wounds were excised, embedded in OCT compound, and cryosectioned for histological evaluation and in-situ zymography.
as §2

MMP-2 [4] = target: T2, MMP-2 (Homo sapiens (Human), UniProt P08253); test: Enzyme inhibition, MMP-2; type: biochemical
From the text: as §1
Target sequence in this assay (P08253 110-660): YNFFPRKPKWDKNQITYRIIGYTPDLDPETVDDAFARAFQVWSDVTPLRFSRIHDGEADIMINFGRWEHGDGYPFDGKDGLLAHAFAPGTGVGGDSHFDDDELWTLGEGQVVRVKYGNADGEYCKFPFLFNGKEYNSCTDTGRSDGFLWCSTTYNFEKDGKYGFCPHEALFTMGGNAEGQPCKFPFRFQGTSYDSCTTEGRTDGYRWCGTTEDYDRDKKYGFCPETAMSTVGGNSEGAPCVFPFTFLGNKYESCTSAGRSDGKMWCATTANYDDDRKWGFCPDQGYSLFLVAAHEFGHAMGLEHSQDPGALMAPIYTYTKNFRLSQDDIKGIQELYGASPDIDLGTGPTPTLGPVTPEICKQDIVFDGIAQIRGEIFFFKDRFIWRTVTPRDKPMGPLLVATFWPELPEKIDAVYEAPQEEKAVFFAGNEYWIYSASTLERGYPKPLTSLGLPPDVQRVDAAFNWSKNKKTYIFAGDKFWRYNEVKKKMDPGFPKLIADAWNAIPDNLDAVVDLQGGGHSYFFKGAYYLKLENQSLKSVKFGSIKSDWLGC

MMP-14 = MMP-14 (Homo sapiens (Human), UniProt P50281); test: Enzyme inhibition, MMP-14 catalytic domain; type: biochemical
From the text: as §1

ADAM10 = ADAM10 (Homo sapiens (Human), UniProt O14672); test: Enzyme inhibition, ADAM10; type: biochemical
Sequence of ADAM10 (O14672 214-672): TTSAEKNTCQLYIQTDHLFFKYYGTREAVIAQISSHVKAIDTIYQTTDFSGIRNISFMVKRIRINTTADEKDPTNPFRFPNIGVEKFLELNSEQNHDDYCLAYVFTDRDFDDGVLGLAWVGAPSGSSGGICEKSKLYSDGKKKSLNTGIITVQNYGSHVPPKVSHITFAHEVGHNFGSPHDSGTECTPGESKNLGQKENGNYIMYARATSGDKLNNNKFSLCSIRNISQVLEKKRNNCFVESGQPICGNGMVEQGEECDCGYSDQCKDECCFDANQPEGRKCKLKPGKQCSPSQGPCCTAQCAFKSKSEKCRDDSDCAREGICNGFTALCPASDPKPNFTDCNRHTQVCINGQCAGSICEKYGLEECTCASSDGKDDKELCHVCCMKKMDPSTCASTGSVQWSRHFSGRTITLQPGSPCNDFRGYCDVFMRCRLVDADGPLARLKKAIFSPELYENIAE
From the text: as §1

MMP-7 = MMP-7 (Homo sapiens (Human), UniProt P09237); test: Enzyme inhibition, MMP-7; type: biochemical
Sequence of MMP-7 (P09237 95-267): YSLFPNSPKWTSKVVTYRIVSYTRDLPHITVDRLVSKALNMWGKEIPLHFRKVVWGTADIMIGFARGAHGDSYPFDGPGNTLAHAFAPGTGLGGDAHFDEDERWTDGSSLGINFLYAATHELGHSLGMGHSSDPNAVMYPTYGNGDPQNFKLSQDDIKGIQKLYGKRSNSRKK
From the text: as §1

VEGF = VEGF in wound tissue by ELISA; type: in vivo, mouse; settings: db/db mice
Experimental: as §2, §3

TGF-β1 = TGF-β1 in wound tissue by ELISA; type: in vivo, mouse; settings: db/db mice, versus vehicle
Experimental: as §2, §3

CD31 = test: Angiogenesis by anti-CD31 staining; type: in vivo, mouse; settings: db/db mice wounds
Experimental: (§5) Wounds were embedded in optimal cutting temperature (OCT, Tissue-Tek, Sakura Finetek, Torrance, Calif., USA) compound and cryosectioned at 12-μm thickness for hematoxylin-eosin (H&E) and at 8-μm thickness for in-situ zymography. Re-epithelialization was assessed on a fluorescent microscope (Nikon Eclipse 90i, Nikon Instruments, Inc., Melville, N.Y., USA). Apoptotic cells in wound sections were assessed using a modified terminal deoxynucleotidyl transferase-mediated dUTP-nick-end labeling (TUNEL) assay kit, following the manufacturer's instructions (Trevigen, Inc., Gaithersburg, Md., USA). For in-situ zymography, unfixed cryostat sections of wound tissues were incubated in reaction buffer (50 mM TBS pH 7.6) containing DQ-gelatin or DQ-collagen (Molecular Probes, Inc., Eugene, Oreg., USA) at 37° C. for 6 h. After fixation in 4% paraformaldehyde in PBS, cells were counterstained with DAPI and the images were visualized by fluorescence microscopy. Immunofluorescent detection of vascular density was performed by staining the tissues with Alexa Fluor 488 anti-mouse CD31 (BioLegend, San Diego, Calif., USA), followed by staining the nuclei with DAPI. The images for in-situ zymography and vascular density were obtained by confocal microscopy.

[5] = test system: re-epithelialization of diabetic wounds; test: H&E staining, re-epithelialization of diabetic wounds; type: in vivo, mouse; settings: db/db mice, ND-336 0.1 mg/wound/day, day 14
Experimental: as §4
Female diabetic db/db (BKS.Cg-Dock7m+/+Leprdb/J, 8-weeks old, 38±3 g, n=24) were used for this study. Wounds were inflicted as described and the following day the wounds were treated topically with MMP-8 (50 μL of 20 μg/mL MMP-8 in reaction buffer) or vehicle (50 μL reaction buffer) once a day for 14 days. The reaction buffer consisted of 50 mM Tris (pH 7.5), 10 mM CaCl2, 150 mM NaCl, and 0.05% (w/v) Brij-35 (polyoxyethyleneglycoli dodecyl ether). […]
Wounds were embedded in optimal cutting temperature (OCT, Tissue-Tek, Sakura Finetek, Torrance, Calif., USA) compound and cryosectioned at 12-μm thickness for hematoxylin-eosin (H&E) and at 8-μm thickness for in-situ zymography. Re-epithelialization was assessed on a fluorescent microscope (Nikon Eclipse 90i, Nikon Instruments, Inc., Melville, N.Y., USA). Apoptotic cells in wound sections were assessed using a modified terminal deoxynucleotidyl transferase-mediated dUTP-nick-end labeling (TUNEL) assay kit, following the manufacturer's instructions (Trevigen, Inc., Gaithersburg, Md., USA). […] After fixation in 4% paraformaldehyde in PBS, cells were counterstained with DAPI and the images were visualized by fluorescence microscopy. […]

ADAM9 = ADAM9 (Homo sapiens (Human), UniProt Q13443); test: Enzyme inhibition, ADAM9; type: biochemical
Sequence of ADAM9 (Q13443 whole entry, looked up, change not shown): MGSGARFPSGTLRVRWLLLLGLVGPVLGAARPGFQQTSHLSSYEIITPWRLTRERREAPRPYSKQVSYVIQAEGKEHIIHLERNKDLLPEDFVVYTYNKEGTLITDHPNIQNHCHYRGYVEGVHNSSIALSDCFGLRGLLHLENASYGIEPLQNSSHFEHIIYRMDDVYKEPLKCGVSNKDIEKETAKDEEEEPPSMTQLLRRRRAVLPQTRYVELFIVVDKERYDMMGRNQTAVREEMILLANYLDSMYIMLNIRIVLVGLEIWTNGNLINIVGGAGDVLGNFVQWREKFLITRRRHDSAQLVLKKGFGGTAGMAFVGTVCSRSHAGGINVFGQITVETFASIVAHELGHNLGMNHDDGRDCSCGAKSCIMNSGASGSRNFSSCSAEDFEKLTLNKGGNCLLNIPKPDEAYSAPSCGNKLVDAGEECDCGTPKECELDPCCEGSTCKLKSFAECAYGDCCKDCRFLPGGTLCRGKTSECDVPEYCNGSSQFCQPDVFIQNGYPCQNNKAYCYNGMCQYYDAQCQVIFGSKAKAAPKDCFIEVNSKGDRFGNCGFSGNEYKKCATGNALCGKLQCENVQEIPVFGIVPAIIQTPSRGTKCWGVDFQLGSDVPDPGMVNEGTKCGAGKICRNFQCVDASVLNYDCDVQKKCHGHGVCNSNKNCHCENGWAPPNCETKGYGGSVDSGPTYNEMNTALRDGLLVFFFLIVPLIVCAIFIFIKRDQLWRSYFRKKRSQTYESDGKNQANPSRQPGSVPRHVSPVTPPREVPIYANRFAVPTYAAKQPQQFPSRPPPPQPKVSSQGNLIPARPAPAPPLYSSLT
From the text: as §1

[6] = test system: MMP-9 activity (gelatinase) in diabetic wounds; test: In-situ zymography with DQ-gelatin; type: in vivo, mouse; settings: db/db mice
From the text: (§7) In-situ zymography detects MMP activity in vivo using the fluorogenic substrates: DQ-gelatin for gelatinase (MMP-2 and MMP-9) activity and DQ-collagen for collagenase (MMP-1, MMP-8, and MMP-13) activity.
(§8) Wounds were embedded in optimal cutting temperature (OCT, Tissue-Tek, Sakura Finetek, Torrance, Calif., USA) compound and cryosectioned at 12-μm thickness for hematoxylin-eosin (H&E) and at 8-μm thickness for in-situ zymography. […] For in-situ zymography, unfixed cryostat sections of wound tissues were incubated in reaction buffer (50 mM TBS pH 7.6) containing DQ-gelatin or DQ-collagen (Molecular Probes, Inc., Eugene, Oreg., USA) at 37° C. for 6 h. After fixation in 4% paraformaldehyde in PBS, cells were counterstained with DAPI and the images were visualized by fluorescence microscopy. […] The images for in-situ zymography and vascular density were obtained by confocal microscopy.

MMP-3 = MMP-3 (Homo sapiens (Human), UniProt P08254); test: Enzyme inhibition, MMP-3 catalytic domain; type: biochemical
Sequence of MMP-3 (P08254 100-272): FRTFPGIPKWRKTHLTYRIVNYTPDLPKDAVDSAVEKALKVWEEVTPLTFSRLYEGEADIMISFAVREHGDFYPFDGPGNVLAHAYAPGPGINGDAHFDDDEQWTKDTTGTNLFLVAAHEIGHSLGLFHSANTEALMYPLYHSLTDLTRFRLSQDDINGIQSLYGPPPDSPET
From the text: as §1

[7] = test system: apoptotic cells in diabetic wounds; test: TUNEL apoptosis detection in diabetic wounds; type: in vivo, mouse; settings: db/db mice, ND-336 0.1 mg/wound/day, day 14
From the text: as §4, §2
as §5, with “Immunofluorescent detection of vascular density was performed by staining the tissues with Alexa Fluor 488 anti-mouse CD31 (BioLegend, San Diego, Calif., USA), followed by staining the nuclei with DAPI. The images for in-situ zymography and vascular density were obtained by confocal microscopy.” left out

[8] = test system: MMP-8 activity (collagenase) in diabetic wounds; test: In-situ zymography with DQ-collagen; type: in vivo, mouse; settings: db/db mice
From the text: as §7, §8

[9] = test system: ultraviolet B irradiated murine skin; settings: Kobayashi & Shinkai (2005); cited from earlier work
MMP-2 [10] = target: T2, MMP-2; settings: for comparison; cited from earlier work
Target sequence in this assay (P08253 110-660, species assumed): as the sequence (P08253 110-660) above

MMP-9 [11] = target: T1, MMP-9; settings: for comparison; cited from earlier work
Target sequence in this assay (P14780 94-707, species assumed): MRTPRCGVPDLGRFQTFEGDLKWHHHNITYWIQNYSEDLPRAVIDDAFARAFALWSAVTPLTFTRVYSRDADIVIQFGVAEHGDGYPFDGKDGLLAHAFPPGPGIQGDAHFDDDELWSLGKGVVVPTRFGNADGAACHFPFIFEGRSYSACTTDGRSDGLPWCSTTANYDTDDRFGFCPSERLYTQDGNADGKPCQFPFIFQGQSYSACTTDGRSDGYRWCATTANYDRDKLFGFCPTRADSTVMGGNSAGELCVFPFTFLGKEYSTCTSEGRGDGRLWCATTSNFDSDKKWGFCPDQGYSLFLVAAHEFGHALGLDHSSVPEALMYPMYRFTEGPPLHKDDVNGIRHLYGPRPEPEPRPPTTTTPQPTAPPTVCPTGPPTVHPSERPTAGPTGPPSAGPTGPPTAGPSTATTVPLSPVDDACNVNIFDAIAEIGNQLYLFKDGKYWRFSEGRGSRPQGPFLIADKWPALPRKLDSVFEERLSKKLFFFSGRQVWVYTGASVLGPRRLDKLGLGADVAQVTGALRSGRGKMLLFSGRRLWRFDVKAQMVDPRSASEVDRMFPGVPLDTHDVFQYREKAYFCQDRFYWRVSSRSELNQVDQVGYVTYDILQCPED

[12] = topical ND-336 0.1 mg/wound/day
[13] = combination study: ND-336 0.05 mg/wound/day, MMP-8 1 μg/wound/day

CS(=O)(=O)Oc1ccc(Oc2ccc(S(=O)(=O)CC3CS3)cc2)cc1 (stereo not drawn) [JNMS-38]
Inhibition type, MMP-9 (MMP-9 [1]): slow-binding
Inhibition type, MMP-8 (MMP-8): linear competitive

Nc1ccc(Oc2ccc(S(=O)(=O)CC3CS3)cc2)cc1 (stereo not drawn) [ND-322]
Inhibition type, MMP-9 (MMP-9 [1]): slow-binding

NCc1ccc(Oc2ccc(S(=O)(=O)CC3CS3)cc2)cc1 (stereo not drawn) [ND-336, (4-(4-((Thiiran-2-ylmethyl)sulfonyl)phenoxy)phenyl)methanamine HCl salt]
inhibition of MMP-1 (in words) (MMP-1): marginal to no inhibition
inhibition at 100 µM (MMP-1; @ 100 μM, catalytic domain): 4%
Area-under-the-curve (AUC) for IL-6 (IL-6): significantly reduced
IL-6 concentrations in wounds (IL-6; days 1, 3, 14): significantly reduced
stability in the buffers used in the kinetic assays [2]: stable
wound healing in dose-response study ([3]; 0.05 mg/wound/day, day 14, versus vehicle and 0.025 and 0.01 mg/wound/day): significant better healing
diabetic wound healing (in words) [3, 12]: accelerated diabetic wound healing
wound healing faster than vehicle [3, 12]: about 2 fold
Inhibition type, MMP-2 (MMP-2 [4]): slow-binding
Inhibition type, MMP-14 (MMP-14): slow-binding
inhibition of ADAM10 (in words) (ADAM10): marginal to no inhibition
inhibition at 100 µM (ADAM10; @ 100 μM): 14%
inhibition of MMP-7 (in words) (MMP-7): marginal to no inhibition
inhibition at 100 µM (MMP-7; @ 100 μM): 1%
Inhibition type, MMP-9 (MMP-9 [1]): slow-binding
lower Ki for MMP-9 than for MMP-8 (MMP-9 [1]; MMP-9 versus MMP-8): 50 fold
VEGF concentrations in the wounds (VEGF; compared to vehicle): increased
Area-under-the-curve (AUC) for VEGF (VEGF; versus vehicle): significantly increased
Area-under-the-curve (AUC) for TGF-β1 (TGF-β1): significantly reduced
levels of TGF-β1 in wounds (TGF-β1; days 1, 3, 14): significantly reduced
angiogenesis by anti-CD31 antibodies (CD31): increased angiogenesis
re-epithelialization (H&E) [5]: almost complete re-epithelialization
inhibition at 100 µM (ADAM9; @ 100 μM): 31%
inhibition of ADAM9 (in words) (ADAM9; printed as ADAMS): marginal to no inhibition
MMP-9 activity in wounds (DQ-gelatin) ([6]; ND-336 0.1 mg/wound/day): significantly decreased
MMP-9 activity in wounds (DQ-gelatin) [6, 13]: inhibition of MMP-9
Inhibition type, MMP-8 (MMP-8; HCl salt): linear noncompetitive; also recorded: linear non-competitive
inhibition of MMP-3 (in words) (MMP-3): marginal to no inhibition
inhibition at 100 µM (MMP-3; @ 100 μM, catalytic domain): 23%
apoptosis (TUNEL) [7]: significantly decreased
MMP-8 activity in wounds (DQ-collagen) ([8]; ND-336 0.1 mg/wound/day): not affected
MMP-8 activity in wounds (DQ-collagen) [8, 13]: presence of MMP-8

COC(=O)Nc1ccc(Oc2ccc(S(=O)(=O)CC3CS3)cc2)cc1 (stereo not drawn) [ND-380]
Inhibition type, MMP-9 (MMP-9 [1]): slow-binding
residence time (MMP-9 [1]): 19.6 min
Inhibition type, MMP-8 (MMP-8): non-competitive
Ki (MMP-8): 13000 nM

CCOC(=O)Nc1ccc(Oc2ccc(S(=O)(=O)CC3CS3)cc2)cc1 (stereo not drawn) [ND-394]
Inhibition type, MMP-9 (MMP-9 [1]): slow-binding
Ki (MMP-9 [1]): 860 nM
residence time (MMP-9 [1]): 25.6 min
Inhibition type, MMP-8 (MMP-8): non-competitive
Ki (MMP-8): 15000 nM

CCOC(=O)Oc1ccc(Oc2ccc(S(=O)(=O)CC3CS3)cc2)cc1 (stereo not drawn) [ND-395]
Inhibition type, MMP-9 (MMP-9 [1]): slow-binding
Ki (MMP-9 [1]): 930 nM
residence time (MMP-9 [1]): 119 min
Ki (MMP-8): 11000 nM

O=S(=O)(CC1CS1)c1ccc(Oc2ccccc2)cc1 (stereo not drawn) [SB-3CT, reference compound]
Inhibition type, MMP-9 (MMP-9 [1]): slow-binding

CCC(=C/[C@H](C)C/C=C/C(C)=C/[C@@H](C)C(=O)[C@@H](C)[C@H](O)[C@@H](C)C/C(C)=C/C(=O)O)/C=C/[C@@H]1OC(=O)C=C[C@@H]1C [leptomycin B]
inflammation in ultraviolet B irradiated murine skin [9]: suppressed inflammation

O=S(=O)(CC1CS1)c1ccc(Oc2ccc(O)cc2)cc1 (stereo not drawn) [p-OH SB-3CT]
Inhibition type, MMP-9 (MMP-9 [1]): slow-binding
Ki (MMP-9 [1]): 160 nM
residence time (MMP-9 [1]): 24.5 min
Inhibition type, MMP-8 (MMP-8): non-competitive
Ki (MMP-8): 2600 nM

TIMP1: endogenous protein inhibitor, tissue inhibitor of metalloproteinase
residence time of TIMP on MMP-2 (MMP-2 [10]): 6.9 min
residence time of TIMP on MMP-9 (MMP-9 [11]): 7.9 min
